pIC50: −log10 of the molar value. Where two headings read alike, the source gives them in different places.
What was measured:
[1] = Evaluation of blood-brain barrier (BBB) permeability through oral administration; type: in vivo, mice; conditions: mouse, in vivo, mice, oral, 4 hr; for Kp at 4 h: read-out: Mean brain-plasma drug ratio at 4 hr
Protocol: The blood-brain barrier (BBB) permeability was evaluated in mice, with respect to the compounds according to the present invention and the control (ibiglustat). Each compound of the present invention and the control were suspended in 0.5% methyl cellulose containing 0.2% Tween 80 and then orally administered to mice at a dose of 10 or 30 mg/10 ml/kg. After the whole blood was collected from the heart of each mouse at the time of 4 hours after the administration, it was placed in a lithium heparin tube and immediately centrifuged to obtain the plasma. After the exsanguination was carried out through abdominal vena cava incision, the forebrain was taken by dissection of the head. Both of the forebrain and the plasma were stored in a −80° C. freezer until the analysis of drug concentrations therein. For the analysis of drug concentrations therein, the forebrain was immersed in distilled water and then homogenized with a homogenizer to obtain a homogenate. Each plasma and homogenate was treated with acetonitrile to precipitate proteins, vortexed for 15 seconds, and then centrifuged (12700 rpm, 10 min, 4° C.). The obtained supernatant was diluted with an 80% aqueous solution of acetonitrile containing 0.1% formic acid and then analyzed with an LC-MS/MS instrument. LC-MS/MS analysis was carried out with a reversed-phase column, using distilled water containing 0.1% formic acid and acetonitrile as mobile phases. Each eluted material was detected through a mass spectrometer to calculate the drug concentrations thereof. The brain-plasma drug ratio (B/P ratio) was calculated from the drug concentrations in each tissue to evaluate the blood-brain barrier (BBB) permeability.

[2] = test system: GM1 production in Jurkat cells; assay: cells; type: cell-based; conditions: Homo sapiens, Jurkat, 72 h
[3] = dose 30 mg/kg, read-out: Mean drug concentrations in brain tissue at 4 hr
[4] = dose 30 mg/kg, read-out: Mean drug concentrations in plasma at 4 hr

## COc1ccc(-c2cc3c(cc2F)[C@H](NC(=O)O[C@@H]2CN4CCC2CC4)C(C)(C)C3)c(Cl)c1 [Example 103, (S)-quinuclidin-3-yl((R)-5-(2-chloro-4-methoxyphenyl)-6-fluoro-2,2-dimethyl-2,3-dihydro-1H-inden-1-yl)carbamate]
[1]; dose 30 mg/kg
  Kp at 4 h: 2.76
[1]; [3]
  concentration at 4 h: 4680 ng/g
[1]; [4]
  concentration at 4 h: 1700 ng/mL
[2]
  pIC50: 8.25

## CCCc1ccc(-c2cc3c(cc2F)[C@H](NC(=O)O[C@@H]2CN4CCC2CC4)C(C)(C)C3)cc1 [Example 61, (S)-quinuclidin-3-yl((R)-6-fluoro-2,2-dimethyl-5-(4-propylphenyl)-2,3-dihydro-1H-inden-1-yl)carbamate]
[1]; dose 30 mg/kg
  Kp at 4 h: 11.1
[1]; [3]
  concentration at 4 h: 4880 ng/g
[1]; [4]
  concentration at 4 h: 439 ng/mL
[2]
  pIC50: 7.98

## Cc1cc(-c2ccc3c(c2)CC(C)(C)[C@H]3NC(=O)O[C@@H]2CN3CCC2CC3)cc(C)c1OC(C)C [Example 10, (S)-quinuclidin-3-yl((R)-5-(4-isopropoxy-3,5-dimethylphenyl)-2,2-dimethyl-2,3-dihydro-1H-inden-1-yl)carbamate]
[1]; dose 30 mg/kg
  Kp at 4 h: 5.62
[1]; [3]
  concentration at 4 h: 6100 ng/g
[1]; [4]
  concentration at 4 h: 1090 ng/mL
[2]
  pIC50: 7.99

## COc1ccc(-c2ccc3c(c2)CC(C)(C)[C@H]3NC(=O)O[C@@H]2CN3CCC2CC3)cc1Cl [Example 14, (S)-quinuclidin-3-yl((R)-5-(3-chloro-4-methoxyphenyl)-2,2-dimethyl-2,3-dihydro-1H-inden-1-yl)carbamate]
[1]; dose 30 mg/kg
  Kp at 4 h: 3.92
[1]; [3]
  concentration at 4 h: 3070 ng/g
[1]; [4]
  concentration at 4 h: 781 ng/mL
[2]
  pIC50: 7.31

## CCCOc1c(C)cc(-c2ccc3c(c2)CC(C)(C)[C@H]3NC(=O)O[C@@H]2CN3CCC2CC3)cc1C [Example 9, (S)-quinuclidin-3-yl((R)-5-(3,5-dimethyl-4-propoxyphenyl)-2,2-dimethyl-2,3-dihydro-1H-inden-1-yl)carbamate]
[1]; dose 30 mg/kg
  Kp at 4 h: 6.84
[1]; [3]
  concentration at 4 h: 2750 ng/g
[1]; [4]
  concentration at 4 h: 403 ng/mL
[2]
  pIC50: 7.66

## COc1ccc(-c2cc3c(cc2F)[C@H](NC(=O)O[C@@H]2CN4CCC2CC4)C(C)(C)C3)c(F)c1 [Example 67, (S)-quinuclidin-3-yl((R)-6-fluoro-5-(2-fluoro-4-methoxyphenyl)-2,2-dimethyl-2,3-dihydro-1H-inden-1-yl)carbamate]
[1]; dose 30 mg/kg
  Kp at 4 h: 4.11
[1]; [3]
  concentration at 4 h: 3670 ng/g
[1]; [4]
  concentration at 4 h: 903 ng/mL
[2]
  pIC50: 8.28

## CC(C)Oc1ccc(-c2cc3c(cc2F)[C@H](NC(=O)O[C@@H]2CN4CCC2CC4)C(C)(C)C3)cc1 [Example 68, (S)-quinuclidin-3-yl((R)-6-fluoro-5-(4-isopropoxyphenyl)-2,2-dimethyl-2,3-dihydro-1H-inden-1-yl)carbamate]
[1]; dose 30 mg/kg
  Kp at 4 h: 9.77
[1]; [3]
  concentration at 4 h: 13500 ng/g
[1]; [4]
  concentration at 4 h: 1420 ng/mL
[2]
  pIC50: 8.81

## CCOc1ccc(-c2ccc3c(c2)CC(C)(C)[C@H]3NC(=O)O[C@@H]2CN3CCC2CC3)cc1Cl [Example 15, (S)-quinuclidin-3-yl((R)-5-(3-chloro-4-ethoxyphenyl)-2,2-dimethyl-2,3-dihydro-1H-inden-1-yl)carbamate]
[1]; dose 30 mg/kg
  Kp at 4 h: 4.66
[1]; [3]
  concentration at 4 h: 6030 ng/g
[1]; [4]
  concentration at 4 h: 1290 ng/mL
[2]
  pIC50: 7.39

## CCOc1ccc(-c2cc3c(cc2F)[C@H](NC(=O)O[C@@H]2CN4CCC2CC4)C(C)(C)C3)cc1F [Example 90, (S)-quinuclidin-3-yl((R)-5-(4-ethoxy-3-fluorophenyl)-6-fluoro-2,2-dimethyl-2,3-dihydro-1H-inden-1-yl)carbamate]
[1]; dose 30 mg/kg
  Kp at 4 h: 7.42
[1]; [3]
  concentration at 4 h: 6480 ng/g
[1]; [4]
  concentration at 4 h: 874 ng/mL
[2]
  pIC50: 7.58

## CC(C)COc1ccc(-c2cc3c(cc2F)[C@H](NC(=O)O[C@@H]2CN4CCC2CC4)C(C)(C)C3)cc1 [Example 57, (S)-quinuclidin-3-yl((R)-6-fluoro-5-(4-isobutoxyphenyl)-2,2-dimethyl-2,3-dihydro-1H-inden-1-yl)carbamate]
[1]; dose 30 mg/kg
  Kp at 4 h: 20.9
[1]; [3]
  concentration at 4 h: 1330 ng/g
[1]; [4]
  concentration at 4 h: 63.7 ng/mL
[2]
  pIC50: 9.00

## CCCOc1ccc(-c2ccc3c(c2)CC(C)(C)[C@H]3NC(=O)O[C@@H]2CN3CCC2CC3)cc1F [Example 20, (S)-quinuclidin-3-yl((R)-5-(3-fluoro-4-propoxyphenyl)-2,2-dimethyl-2,3-dihydro-1H-inden-1-yl)carbamate]
[1]; dose 30 mg/kg
  Kp at 4 h: 7.12
[1]; [3]
  concentration at 4 h: 4070 ng/g
[1]; [4]
  concentration at 4 h: 578 ng/mL
[2]
  pIC50: 7.74

## CC(C)Oc1ccc(-c2ccc3c(c2)CC(C)(C)[C@H]3NC(=O)O[C@@H]2CN3CCC2CC3)cc1Cl [Example 11, (S)-quinuclidin-3-yl((R)-5-(3-chloro-4-isopropoxyphenyl)-2,2-dimethyl-2,3-dihydro-1H-inden-1-yl)carbamate]
[1]; dose 10 mg/kg
  Kp at 4 h: 9.12
[1]; dose 10 mg/kg, read-out: Mean drug concentrations in brain tissue at 4 hr
  concentration at 4 h: 2410 ng/g
[1]; dose 10 mg/kg, read-out: Mean drug concentrations in plasma at 4 hr
  concentration at 4 h: 265 ng/mL
[2]
  pIC50: 7.63

## CC(C)Cc1ccc(-c2cc3c(cc2F)[C@H](NC(=O)O[C@@H]2CN4CCC2CC4)C(C)(C)C3)cc1 [Example 62, (S)-quinuclidin-3-yl((R)-6-fluoro-5-(4-isobutylphenyl)-2,2-dimethyl-2,3-dihydro-1H-inden-1-yl)carbamate]
[1]; dose 30 mg/kg
  Kp at 4 h: 6.83
[1]; [3]
  concentration at 4 h: 2960 ng/g
[1]; [4]
  concentration at 4 h: 434 ng/mL
[2]
  pIC50: 8.47

## Cc1cc(-c2cc3c(cc2F)[C@H](NC(=O)O[C@@H]2CN4CCC2CC4)C(C)(C)C3)cc(C)c1OC(C)C [Example 65, (S)-quinuclidin-3-yl((R)-6-fluoro-5-(4-isopropoxy-3,5-dimethylphenyl)-2,2-dimethyl-2,3-dihydro-1H-inden-1-yl)carbamate]
[1]; dose 30 mg/kg
  Kp at 4 h: 5.04
[1]; [3]
  concentration at 4 h: 4080 ng/g
[1]; [4]
  concentration at 4 h: 811 ng/mL
[2]
  pIC50: 8.06

## CCCOc1ccc(-c2cc3c(cc2F)[C@H](NC(=O)O[C@@H]2CN4CCC2CC4)C(C)(C)C3)cc1 [Example 69, (S)-quinuclidin-3-yl((R)-6-fluoro-2,2-dimethyl-5-(4-propoxyphenyl)-2,3-dihydro-1H-inden-1-yl)carbamate]
[1]; dose 30 mg/kg
  Kp at 4 h: 9.84
[1]; [3]
  concentration at 4 h: 4140 ng/g
[1]; [4]
  concentration at 4 h: 433 ng/mL
[2]
  pIC50: 8.96

## CC(C)c1ccc(-c2cc3c(cc2F)[C@H](NC(=O)O[C@@H]2CN4CCC2CC4)C(C)(C)C3)cc1 [Example 59, (S)-quinuclidin-3-yl((R)-6-fluoro-5-(4-isopropylphenyl)-2,2-dimethyl-2,3-dihydro-1H-inden-1-yl)carbamate]
[1]; dose 30 mg/kg
  Kp at 4 h: 9.7
[1]; [3]
  concentration at 4 h: 4120 ng/g
[1]; [4]
  concentration at 4 h: 436 ng/mL
[2]
  pIC50: 8.37

## Cc1ccc(-c2ccc3c(c2)CC(C)(C)[C@H]3NC(=O)O[C@@H]2CN3CCC2CC3)cc1Cl [Example 45, (S)-quinuclidin-3-yl((R)-5-(3-chloro-4-methylphenyl)-2,2-dimethyl-2,3-dihydro-1H-inden-1-yl)carbamate]
[1]; dose 30 mg/kg
  Kp at 4 h: 9.09
[1]; [3]
  concentration at 4 h: 7820 ng/g
[1]; [4]
  concentration at 4 h: 858 ng/mL
[2]
  pIC50: 8.22

## CCOc1c(C)cc(-c2ccc3c(c2)CC(C)(C)[C@H]3NC(=O)O[C@@H]2CN3CCC2CC3)cc1C [Example 22, (S)-quinuclidin-3-yl((R)-5-(4-ethoxy-3,5-dimethylphenyl)-2,2-dimethyl-2,3-dihydro-1H-inden-1-yl)carbamate]
[1]; dose 30 mg/kg
  Kp at 4 h: 3.37
[1]; [3]
  concentration at 4 h: 4400 ng/g
[1]; [4]
  concentration at 4 h: 1320 ng/mL
[2]
  pIC50: 7.42

## CC(C)Oc1ccc(-c2cc3c(cc2F)[C@H](NC(=O)O[C@@H]2CN4CCC2CC4)C(C)(C)C3)cc1Cl [Example 66, (S)-quinuclidin-3-yl((R)-5-(3-chloro-4-isopropoxyphenyl)-6-fluoro-2,2-dimethyl-2,3-dihydro-1H-inden-1-yl)carbamate]
[1]; dose 30 mg/kg
  Kp at 4 h: 7.85
[1]; [3]
  concentration at 4 h: 5490 ng/g
[1]; [4]
  concentration at 4 h: 719 ng/mL
[2]
  pIC50: 8.30

## COc1ccc(-c2cc3c(cc2F)[C@H](NC(=O)O[C@@H]2CN4CCC2CC4)C(C)(C)C3)cc1 [Example 82, (S)-quinuclidin-3-yl((R)-6-fluoro-5-(4-methoxyphenyl)-2,2-dimethyl-2,3-dihydro-1H-inden-1-yl)carbamate]
[1]; dose 30 mg/kg
  Kp at 4 h: 6.32
[1]; [3]
  concentration at 4 h: 5520 ng/g
[1]; [4]
  concentration at 4 h: 896 ng/mL
[2]
  pIC50: 7.69

## CC(C)Oc1ccc(-c2ccc3c(c2)CC(C)(C)[C@H]3NC(=O)O[C@@H]2CN3CCC2CC3)cc1F [Example 21, (S)-quinuclidin-3-yl((R)-5-(3-fluoro-4-isopropoxyphenyl)-2,2-dimethyl-2,3-dihydro-1H-inden-1-yl)carbamate]
[1]; dose 30 mg/kg
  Kp at 4 h: 6.48
[1]; [3]
  concentration at 4 h: 9510 ng/g
[1]; [4]
  concentration at 4 h: 1480 ng/mL
[2]
  pIC50: 7.68

## COc1ccc(-c2ccc3c(c2)CC(C)(C)[C@H]3NC(=O)O[C@@H]2CN3CCC2CC3)c(Cl)c1 [Example 43, (S)-quinuclidin-3-yl((R)-5-(2-chloro-4-methoxyphenyl)-2,2-dimethyl-2,3-dihydro-1H-inden-1-yl)carbamate]
[1]; dose 30 mg/kg
  Kp at 4 h: 3.65
[1]; [3]
  concentration at 4 h: 5720 ng/g
[1]; [4]
  concentration at 4 h: 1560 ng/mL
[2]
  pIC50: 8.19

Reference: patent publication US20240262819A1, “NOVEL COMPOUNDS HAVING INHIBITORY ACTIVITY AGAINST GLUCOSYLCERAMIDE SYNTHASE OR PHARMACEUTICALLY ACCEPTABLE SALT THEREOF, PROCESSES FOR PREPARING THE SAME, AND PHARMACEUTICAL COMPOSITIONS COMPRISING THE SAME” (YUHAN CORPORATION, priority 2021, published 2024)
